Experimental data as given in patent US6150414A, “Compositions and methods for treating viral infections” (priority 1992, dated 2000).
Several values for one entry are separate records, joined by “and”; a condition that tells them apart may be missing. Equal values may be shown once.

Tests used:
[1] = biological target: T1, Radiation Leukemia Virus reverse transcriptase (Radiation murine leukemia virus, UniProt P11227); test: Reverse transcriptase assay of Radiation Leukemia Virus from B10.T(6R) cell supernatants (Example 3); type: biochemical; settings: Table V; for CPM: replicate
T1 construct: the reverse transcriptase of Radiation Leukemia Virus; endogenous in cells
Experimental: Supernatants (10 ml/tube) from B10.T(6R) cells (Meruelo et al. J. Exp. Med. 147: 470-487, 1978) chronically infected with Radiation Leukemia Virus (RadLV) were obtained by centrifugation of cells in culture at 4° C., 3500 rpm for 15 minutes. The top 2/3 of the supernatant were removed and aliquots were incubated for 30 minutes on ice with the indicated amounts of hypericin or protohypericin. […] Thereafter, supernatants were centrifuged at 100,000×g using a TI70 rotor (Beckman Instruments) for 1 hour at 4° C. The pellet was […] and analyzed for reverse transcriptase activity as follows.
The reverse transcriptase assay was performed in a volume of 100 microliters containing the following components:
The reverse transcriptase assay provides a measure of the antiviral activity of the compounds tested by reference to the observed decrease in activity of this enzyme.
In Table V, "CPM" is "counts per minute", "Average" is the numerical average of CPM values within each group of animals.

retroviruses (virions) = test: Direct inactivation of retroviruses (virions) in vitro (Example 10); type: biochemical, Radiation Leukemia Virus; settings: Table IX
Outline: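 RadLV-containing supernatants from chronically infected B10.T(6R) cells incubated 30 min on ice with hypericin or protohypericin. Virions then pelleted at 100,000×g for 1 h at 4° C and assayed for reverse transcriptase activity. EC50 is the micromolar concentration inhibiting 50% of virus.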

[2] = tested on: virus budding in virus-producing cells; test: In vitro inhibition of virus budding: production of defective budded virions (Example 10); type: cell-based; settings: in vitro; Table IX; read-out: EC50 for production of defective budded virions
Excerpt: The results presented above in Table IX are presented as EC50 concentrations. These are the effective concentrations which inhibit 50% of the viruses in micromolar concentrations.

For `Cc1cc(O)c2c(=O)c3c(O)cc(O)c4c5c(O)cc(O)c6c(=O)c7c(O)cc(C)c8c1c2c(c34)c(c78)c65` [hypericin, Hypericin], the “Average CPM” value ([1]; 0.05 micrograms) was 3,067 CPM, the Average percent inhibition ([1]; 0.05 micrograms) was 98.5% and the CPM ([1]; 0.05 micrograms) was 2,882 CPM and 3,252 CPM. For the same molecule, the “Average CPM” value ([1]; 0.1 micrograms) was 2,333 CPM, the Average percent inhibition ([1]; 0.1 micrograms) was 98.9% and the CPM ([1]; 0.1 micrograms) was 1,668 CPM and 2,998 CPM. The “Average CPM” value ([1]; 0.5 micrograms) was 3,428.5 CPM, the Average percent inhibition ([1]; 0.5 micrograms) was 98.4% and the CPM ([1]; 0.5 micrograms) was 3,190 CPM and 3,667 CPM. The “Average CPM” value ([1]; 1 microgram) was 4,097 CPM, the Average percent inhibition ([1]; 1 microgram) was 98.0% and the CPM ([1]; 1 microgram) was 4,504 CPM and 3,690 CPM. For the same molecule, the “Average CPM” value ([1]; 5 micrograms) was 11,778 CPM, the Average percent inhibition ([1]; 5 micrograms) was 94.4% and the CPM ([1]; 5 micrograms) was 12,224 CPM and 11,332 CPM. The “Average CPM” value ([1]; 10 micrograms) was 9,007 CPM, the Average percent inhibition ([1]; 10 micrograms) was 95.7% and the CPM ([1]; 10 micrograms) was 8,912 CPM and 9,102 CPM. The “Average CPM” value ([1]; 50 micrograms) was 4,575 CPM, the Average percent inhibition ([1]; 50 micrograms) was 97.8% and the CPM ([1]; 50 micrograms) was 5,434 CPM and 3,716 CPM. For the same molecule, the “Average CPM” value ([1]; 100 micrograms) was 1,830 CPM, the Average percent inhibition ([1]; 100 micrograms) was 99.0% and the CPM ([1]; 100 micrograms) was 1,502 CPM and 2,158 CPM. The EC50 (retroviruses (virions)) was 60 nM and the EC50 [2] was 200 nM.
